Laboratory results taken from patent publication US11076595B2, “1-(n,n-disubstituted carbamoyl) 4-(substituted sulfonyl)triazolin-5-one derivative, 4-(n,n-disubstituted carbamoyl) 1-(substituted sulfonyl)triazolin-5-one derivative, and herbicide containing said derivative as active ingredient” (HOKKO CHEMICAL INDUSTRY CO., LTD., priority 2017, dated 2021).

How the values were obtained:
Assay type in all cases: in vivo
Echinochloa crus-galli [1] = experiment: Test Example 11: herbicidal effect test by soil treatment in paddy field; settings: 120 g/10a active ingredient, 14 days after treatment
Excerpt: (§1) A Wagner pot having an area of 1/10000 are was filled with paddy field soil and after adding water, a chemical fertilizer (N:P:K=17:17:17) was mixed, followed by puddling. Thereafter, 30 grains of each of Echinochloa crus-galli, broad-leaved weed (Lindernia pyxidaria, Monochoria vaginalis) and Scirpus juncoides seeds were sown to a depth of 0 to 1 cm. Immediately after the sowing, the pot was flooded, and the depth of water was kept at about 3 cm. The pot was subsequently managed in a glass greenhouse. Just after that, an emulsifiable concentrate prepared according to Formulation Example 15 by using the compound shown in Table 9 below was diluted with water, and a predetermined amount of the water-diluted formulation was added dropwise. The application rate of the active ingredient, by conversion, corresponded to 120 g per 10 are.
(§2) This test was performed with two replications per one formulation concentration plot, and 14 days after the formulation treatments, the weed suppression rate (%) was determined according to the following equation (Math. 2). Weed suppression rate (%)=(1−average dry weight (g) of plants in treated plots/average dry weight (g) of plants in untreated plots)×100 [Math. 2]

Lindernia pyxidaria [2] = experiment: as above; settings: 120 g/10a active ingredient, 14 days after treatment
Excerpt: as §1, §2

Monochoria vaginalis [3] = experiment: as above; settings: 120 g/10a active ingredient, 14 days after treatment
Excerpt: as §1, §2

Scirpus juncoides [4] = experiment: as above; settings: 120 g/10a active ingredient, 14 days after treatment
Excerpt: as §1, §2

Echinochloa crus-galli [5] = experiment: Test Example 12: herbicidal effect test by treatment during growing period in paddy field; settings: 120 g/10a; treatment seven days after sowing in flooded paddy pot; assessed 14 days after treatment
Experimental: as §2
as §1, with “Seven Days” for “Just”, “sowing,” for “that,”, “10” for “9”, “are. The test was performed with two replications per one formulation concentration plot, and 14 days after the formulation treatments, the weed suppression rate (%) was determined according to the equation (Math. 2).” for “are.”

Lindernia pyxidaria [6] = experiment: as above; settings: 120 g/10a; treatment seven days after sowing in flooded paddy pot; assessed 14 days after treatment
Experimental: as §2
as §1, with “Seven Days” for “Just”, “sowing,” for “that,”, “10” for “9”, “are. The test was performed with two replications per one formulation concentration plot, and 14 days after the formulation treatments, the weed suppression rate (%) was determined according to the equation (Math. 2).” for “are.”

Monochoria vaginalis [7] = experiment: as above; settings: 120 g/10a; treatment seven days after sowing in flooded paddy pot; assessed 14 days after treatment
Experimental: as §2
as §1, with “Seven Days” for “Just”, “sowing,” for “that,”, “10” for “9”, “are. The test was performed with two replications per one formulation concentration plot, and 14 days after the formulation treatments, the weed suppression rate (%) was determined according to the equation (Math. 2).” for “are.”

Scirpus juncoides [8] = experiment: as above; settings: 120 g/10a; treatment seven days after sowing in flooded paddy pot; assessed 14 days after treatment
Experimental: as §2
as §1, with “Seven Days” for “Just”, “sowing,” for “that,”, “10” for “9”, “are. The test was performed with two replications per one formulation concentration plot, and 14 days after the formulation treatments, the weed suppression rate (%) was determined according to the equation (Math. 2).” for “are.”

| Compound | Weed suppression rate (%) Echinochloa crus-galli (Echinochloa crus-galli [1]) | Weed suppression rate (%) Lindemia pyxidaria (Lindernia pyxidaria [2]) | Weed suppression rate (%) Monochoria vaginalis (Monochoria vaginalis [3]) | Weed suppression rate (%) Scirpus juncoides (Scirpus juncoides [4]) | Weed suppression rate (%) Echinochloa crus-galli (Echinochloa crus-galli [5]) | Weed suppression rate (%) Lindemia pyxidaria (Lindernia pyxidaria [6]) | Weed suppression rate (%) Monochoria vaginalis (Monochoria vaginalis [7]) | Weed suppression rate (%) Scirpus juncoides (Scirpus juncoides [8]) |
| --- | --- | --- | --- | --- | --- | --- | --- | --- |
| CC(C)N(C(=O)n1cnn(S(C)(=O)=O)c1=O)c1ccccc1F [Compound 11-2] | 90% | 80% | 80% | 90% | 90% | 90% | 80% | 90% |
| CC(C)N(C(=O)n1cnn(S(C)(=O)=O)c1=O)c1cccc(F)c1 [Compound 11-3] | 90% | 80% | 80% | 90% | 90% | 80% | 80% | 90% |
| CC(C)N(C(=O)n1cnn(S(C)(=O)=O)c1=O)c1ccc(F)c(F)c1F [Compound 11-15] | 90% | 70% | 60% | 60% | 70% | 60% | 60% | 100% |
| CC(C)N(C(=O)n1cnn(S(C)(=O)=O)c1=O)c1ccc(Cl)cc1F [Compound 11-20] | 70% | 40% | 40% | 80% | 70% | 40% | 60% | 60% |
| CC(C)N(C(=O)n1cnn(S(=O)(=O)C(C)C)c1=O)c1cccc(F)c1 [Compound 11-50] | 90% | 80% | 80% | 90% | 90% | 80% | 80% | 90% |
| CC(C)N(C(=O)n1cnn(S(=O)(=O)C(C)C)c1=O)c1ccc(Br)cc1Cl [Compound 11-70] | 100% | 100% | 90% | 100% | 100% | 70% | 90% | 100% |
| Cc1cc(N(C(=O)n2cnn(S(=O)(=O)C(C)C)c2=O)C(C)C)no1 [Compound 11-91] | 90% | 80% | 80% | 90% | 90% | 80% | 80% | 90% |
| CN(C(=O)n1cnn(S(=O)(=O)C2CC2)c1=O)c1ccc(F)cc1F [Compound 11-140] | 90% | 70% | 70% | 80% | 100% | 70% | 70% | 100% |
| CC(C)N(C(=O)n1cnn(S(=O)(=O)C2CC2)c1=O)c1cccc(F)c1 [Compound 11-161] | 100% | 100% | 70% | 90% | 90% | 80% | 80% | 90% |
| CC(C)N(C(=O)n1cnn(S(=O)(=O)C2CC2)c1=O)c1c(F)c(F)cc(F)c1F [Compound 11-197] | 100% | 100% | 70% | 100% | 100% | 80% | 100% | 90% |
| CC(C)N(C(=O)n1cnn(S(=O)(=O)C2CC2)c1=O)c1ccc(Cl)cc1Br [Compound 11-210] | 90% | 90% | 80% | 90% | 90% | 80% | 80% | 90% |
| CC(C)N(C(=O)n1cnn(S(=O)(=O)C2CC2)c1=O)c1ccc(C(F)(F)F)cc1Cl [Compound 11-220] | 100% | 90% | 60% | 90% | 90% | 90% | 90% | 80% |
| Cc1nn(S(=O)(=O)C2CC2)c(=O)n1C(=O)N(c1ccc(F)cc1F)C(C)C [Compound 11-246] | 90% | 80% | 80% | 90% | 90% | 80% | 80% | 90% |
| Cc1ccc(S(=O)(=O)n2ncn(C(=O)N(c3ccc(Br)cc3Cl)C(C)C)c2=O)cc1 [Compound 11-648] |  |  |  |  | 60% | 60% | 70% | 90% |
| CC(C)N(C(=O)n1cnn(S(=O)(=O)N(C)C)c1=O)c1c(F)c(F)cc(F)c1F [Compound 11-1069] |  |  |  |  | 90% | 70% | 70% | 60% |
| CN(C(=O)n1cnn(S(=O)(=O)c2ccc(Cl)cc2)c1=O)c1ccc(F)cc1F [Compound 11-1134] |  |  |  |  | 80% | 70% | 70% | 100% |
| CN(C(=O)n1cnn(S(=O)(=O)c2ccc(C(C)(C)C)cc2)c1=O)c1ccc(F)cc1F [Compound 11-1141] |  |  |  |  | 90% | 70% | 80% | 60% |
